Legend:
[1] = test system: S. mutans UA159; test: Rat model of dental caries; details: for bacterial colonization versus control group / body weight over the course of the study / buccal, sulcal, and proximal surface caries scores: 100 μM topically twice daily for 4 weeks; for oral tissue (mucosal and gingival tissues) at sacrifice, treated versus non-treated: 100 μM twice daily for 4 weeks
Description: Rat model of dental caries. S. mutans in vivo colonization and virulence were evaluated using a rat model of dental caries as previously described (Crowley, P. J., Brady, L. J., Michalek, S. M. & Bleiweis, A. S. Virulence of a spaP Mutant of Streptococcus mutans in a Gnotobiotic Rat Model. Infection and Immunity 67, 1201-1206 (1999)). […] Rats were then infected with S. mutans UA159 for three consecutive days and provided a caries-promoting Teklad Diet 305 containing 5% sucrose (Harlan Laboratories, Inc., Indianapolis, IN.) and sterile drinking water ad libitum. One group of rats was then treated with vehicle control while another group was topically treated with the lead compound at 100 μM twice daily for 4 weeks beginning 10 days post infection. Following each treatment, drinking water was withheld for 60 min. Animals were weighed at weaning and at the termination of the experiment. The animals were euthanized, their mandibles excised for microbiological analysis of plaque samples on MS agar plates and BAP and for scoring of caries by the method of Keyes (Keyes, P. H. Dental caries in the molar teeth of rats. II. A method for diagnosing and scoring several types of lesions simultaneously. Journal of dental research 37, 1088-1099 (1958)). All experimental protocols were approved by University of Alabama at Birmingham Institutional Animal Care and Use Committee. The methods were carried out in accordance with the relevant guidelines and regulations.
Dental caries rat model. […] At the age of 20 days, rat pups were removed from isolators and randomly assigned into five groups. […] Rats were then infected with S. mutans UA159 for three consecutive days and provided a caries-promoting Diet 305, which contains 5% sucrose (TD.80406, diet with 62% corn starch, Harlan Laboratories, Madison, Wis.) and sterile drinking water ad libitum. The rats were then treated with the stilbene, water, or not treated respective of their study group as described above at 100 μM twice daily for 4 weeks beginning 10 days post infection. Drinking water was withheld for one hour after each treatment. Rats were weighed at weaning and after 45 days at the termination of the experiment. The animals were euthanized, their mandibles excised for microbiological analysis of plaque samples on MS agar plates and BAP and for scoring of caries by the method of Keyes. All experimental protocols were approved by the University of Alabama at Birmingham Institutional Animal Care and Use Committee and in accordance with the relevant guidelines and regulations.

[2] = target: GtfB catalytic domain (Streptococcus mutans serotype c (strain ATCC 700610 / UA159), UniProt P08987); test: OctetRed96 binding kinetics, GtfB; details: 1:1 binding model
GtfB catalytic domain, sequence (P08987 268-1074 limits assumed): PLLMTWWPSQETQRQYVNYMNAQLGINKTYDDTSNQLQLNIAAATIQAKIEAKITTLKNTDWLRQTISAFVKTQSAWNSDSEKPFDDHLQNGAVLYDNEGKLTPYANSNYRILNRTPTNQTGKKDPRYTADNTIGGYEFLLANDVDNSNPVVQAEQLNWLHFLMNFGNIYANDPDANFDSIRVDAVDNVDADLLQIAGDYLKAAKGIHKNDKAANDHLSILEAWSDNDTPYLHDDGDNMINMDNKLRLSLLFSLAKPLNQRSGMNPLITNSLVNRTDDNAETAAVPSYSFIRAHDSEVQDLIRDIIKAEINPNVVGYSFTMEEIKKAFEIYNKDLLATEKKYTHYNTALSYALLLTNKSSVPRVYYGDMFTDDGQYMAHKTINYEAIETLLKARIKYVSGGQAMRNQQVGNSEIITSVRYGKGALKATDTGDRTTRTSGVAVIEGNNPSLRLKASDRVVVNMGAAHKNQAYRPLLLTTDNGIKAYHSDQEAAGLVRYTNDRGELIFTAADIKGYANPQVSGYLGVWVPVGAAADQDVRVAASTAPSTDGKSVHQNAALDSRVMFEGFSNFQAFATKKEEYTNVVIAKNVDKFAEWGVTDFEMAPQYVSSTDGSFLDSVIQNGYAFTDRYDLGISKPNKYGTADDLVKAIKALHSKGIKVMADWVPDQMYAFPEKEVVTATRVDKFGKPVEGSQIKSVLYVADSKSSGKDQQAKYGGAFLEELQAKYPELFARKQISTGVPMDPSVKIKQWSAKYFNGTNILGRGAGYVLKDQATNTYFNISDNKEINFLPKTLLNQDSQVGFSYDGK
Text: To determine if the inhibition is attributed by the binding of the lead compound to the enzymes, the OctetRed96 system was used to characterize protein-small molecule binding kinetics. The his-tagged catalytic domains of GtfB and GtC were immobilized separately onto an anti-penta-HIS (HIS1K) biosensor which consists of high affinity, high specificity penta-his antibody pre-immobilized on a fiber optic biosensor. This sensor was then exposed to varying concentrations of #G43.
Expression and purification of GtfB and GtfC catalytic domains. The DNA fragment coding for either GtfB catalytic (residues 268 aa-1074 aa) or GtfC-catalytic (residues 295 aa-1103 aa) was PCR amplified with primer sets of GtfB-BamH1-F and GtfB-Xho1-R, GtfC-BamH1-F and GtfC-Xhol1-R respectively using S. mutans genomic DNA as a template. Each amplified fragment was cloned into pET-sumo vector respectively and transformed in Escherichia coli BL21(DE3). The recombinant strain grown to OD600=0.8 in LB medium was induced with 0.1 mM IPTG at 18° C. overnight. Cell lysates prepared form the overnight grown E. coli cells were subjected to protein purification using HiTrap™ Column (Ni^2+ affinity) followed by gel filtration experiments as described (Zhu, F. et al. Structural and functional analysis of a new subfamily of glycosyltransferases required for glycosylation of serine-rich streptococcal adhesins. The Journal of biological chemistry 286, 27048-27057, doi:10.1074/jbc.M110.208629 (2011); Zhang, H. et al. The highly conserved domain of unknown function 1792 has a distinct glycosyltransferase fold. Nature communications 5, 4339, doi:10.1038/ncomms5339 (2014)).
Octet Red analysis. Octet full kinetic binding analysis was performed for binding of #G43 to GtfB and GtfC. The rate constant, KD, was determined using the Octet® Red96 system (ForteBio, Menlo Park, Calif.). Phosphate buffer with 3.5% (w/v) DMSO was used. The proteins were captured on dip-and-read Anti-Penta-HIS (HIS1K) Biosensor. These consist of high affinity, high specificity Penta-His antibody from Qiagen pre-immobilized on a fiber optic biosensor. The binding of #G43 at 3-fold serial dilutions in phosphate buffer from 200, 66.6, 22.2, 7.4, 2.5 to 0 μM was assessed. The ForteBio Octet analysis software (ForteBio, Menlo Park, Calif.) was used to generate the sensorgram and the accuracy of the analysis.
OctetRed analysis. […] GtfC and GtfB were purified. The Octet® Red96 system (ForteBio, Menlo Park, Calif.) was used to determine the rate constant, KD. […] Sensorgrams and the accuracy of the analysis was calculated using the ForteBio OctetRed analysis software (ForteBio, Menlo Park, Calif.).

[3] = test system: S. gordonii; test: Growth of commensal S. gordonii; type: cell-based, Streptococcus gordonii
Description: (§1) Cell viability of S. mutans, S. gordonii, S. sanguinis, Aggregatibacter actinomycetemcomitans and Actinomyces. […] The number of colony-forming units (CFU) per milliliter of each sample treated with selected compounds at different concentrations was enumerated after incubation for 24 h at 37° C. and compared to the values obtained from the DMSO control group. Overnight broth cultures were transferred by 1:50 dilutions into fresh THB medium and were allowed to grow until mid-exponential phase (OD470 nm 0.6) before transfer to 96-well plates containing desired concentration of the compound. After 16 h incubation, bacterial growth was measured at OD470, and normalized to the DMSO control (100%).
(§2) Cell viability of S. mutans and commensal S. gordonii and S. sanguinis. Effects of lead small molecules on cell viability were examined. The number of colony-forming units (CFU) per milliliter for each compound at different concentrations was determined after incubation for 24 h at 37° C. and compared to the values obtained from the DMSO control group.
(§3) Cell viability of S. mutans and commensal S. gordonii and S. sanguinis. […] DMSO served as a control group and provided a relative comparison for the number of colony-forming units (CFU) per milliliter for each compound at different concentrations was determined after incubation for 24 h at 37° C. The final concentration of DMSO used in the assays was 1%.

[4] = test system: S. sanguinis; test: Growth of commensal S. sanguinis; type: cell-based, Streptococcus sanguinis
Description: as §1, §2, §3

SMILES | bacterial colonization versus control group [1] | body weight over the course of the study [1] | buccal, sulcal, and proximal surface caries scores [1] | oral tissue (mucosal and gingival tissues) at sacrifice, treated versus non-treated [1] | Kd [2] [µM] | effect on S. gordonii growth ([3]; 200 μM, OD470) | effect on S. sanguinis growth ([4]; 200 μM, OD470) | decrease of S. gordonii cell density ([3]; 400 μM) | inhibition at 52 µM ([3]; Streptococcus gordonii, at 52 μM, read-out: growth of S. gordonii inhibited) [%] | decrease of S. sanguinis cell density ([4]; 400 μM) | inhibition at 52 µM ([4]; Streptococcus sanguinis, at 52 μM, read-out: growth of S. sanguinis inhibited) [%]
Oc1ccc(/C=C/c2cc(O)cc(O)c2)cc1 [Resveratrol, reference compound] | not statistically significant | did not lose weight | significant reduction | no obvious differences | 144 |  |  |  |  |  | 
NC(=O)c1ccccc1NC(=O)c1cc2cc([N+](=O)[O-])ccc2s1 [#G43] | did not reach the statistically significant difference | did not lose weight | significantly reduced |  | 3.7 | did not have any effect on bacterial growth | did not have any effect on bacterial growth |  |  |  | 
Oc1cc(O)cc(/C=C/c2ccc(O)c(O)c2)c1 [Piceatannol] | not statistically significant | did not lose weight | significant reduction | no obvious differences | 14.6 |  |  | 15-18% | < 10 | 15-18% | < 10

Source: patent US11866416B2, “Streptococcus mutans glucosyl transferase inhibitors for dental caries therapy” (UAB Research Foundation, priority 2018, dated 2024)
